PubChem BioAssay (NCI)
Where “and” joins values, the source holds several entries; their conditions need not be identical. Identical values can stand only once.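 How tested: cells in 96-well plates exposed to compound for 48 hours at five concentrations. At the GI50, growth is halved. TGI: concentration producing complete growth inhibition.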

test system: MDA-MB-231 breast; assay: inhibition of tumour cell growth, NCI panel, 48 h

SMILES	GI50	TGI
CCN(CC)c1ccc2c(c1)OC(N)=C(C#N)C2c1cc(OC)c2c(c1)OCO2 (stereo not drawn)	0.0557 µM	2.73 µM
N#CC(=C1C=CC(=NO)C=C1)c1ccccc1	1.73 µM	5.17 µM
CCCCCCCCCCCCCC1=NC(C)(C)CN1C(C)C	1.52 µM	2.89 µM
COc1ccc(CN2C(=O)/C(=C\C(=O)c3ccc(OCCN4CCCCC4)cc3)c3ccccc32)cc1	2.15 µM	4.56 µM
CCC(C)n1ncn(-c2ccc(N3CCN(c4ccc(OCC5COC(Cn6cncn6)(c6ccc(Cl)cc6Cl)O5)cc4)CC3)cc2)c1=O (stereo not drawn)	7.11 µM	> 100 µM
CC(C)CCN1c2nc(Nc3cc(F)c(O)c(F)c3)ncc2N(C)C(=O)C1C (stereo not drawn)	5.17 µM	> 100 µM
O=C(CNc1ccc(Cl)cc1)Nc1ccc(-c2nc3ccccc3s2)cc1	3.67 µM	14.7 µM
Cc1nc2c(-c3cnc(N)nc3)nc(N3CCOCC3)nc2n1C(C)C	–	> 4.14 µM and 27.1 µM
CCCCCCCCCCCCOC1C(C(COC2OC(C3COC(C)(C)O3)C3OC(C)(C)OC23)NC(=O)Nc2ccc(C(=O)O)cc2)OC2OC(C)(C)OC21 (stereo not drawn)	1.99 µM	4.98 µM
CCN(CC)CCC(CNc1ccnc2cc(Cl)ccc12)c1ccc(OC)cc1 (stereo not drawn)	2.34 µM and 2.42 µM	11.2 µM and 10.9 µM
COc1ccc(/C=C(/C(=O)N2CCN(c3ccccc3)CC2)c2cc(OC)c(OC)c(OC)c2)cc1O	0.378 µM	50.9 µM
CCn1c(-c2nonc2N)nc2c(C#CC(C)(C)O)nc(OC[C@H](N)c3ccccc3)cc21	4.35 µM	8.83 µM

test system: T-47D breast; assay: inhibition of tumour cell growth, NCI panel, 48 h

SMILES	GI50	TGI
C=CCCCCC/C=C\[C@H](O)C#CC#C/C=C/CO	98.4 µM	> 100 µM
O/N=C/C1C(OCc2ccccc2)C(OCc2ccccc2)C(OCc2ccccc2)CN1Cc1ccccc1 (stereo not drawn)	–	> 100 µM
O=C1NC(=O)C(c2cnc3ccccn23)=C1c1cn2c3c(cc(F)cc13)CN(C(=O)N1CCCCC1)CC2	9.79 µM	> 69.2 µM
Clc1nc2ccccc2nc1CI	2.5 µM	6.76 µM
Cn1nc(N)c2cc([C@@H]3Nc4ccc5[nH]ncc5c4[C@H]4C5CCC(C5)[C@@H]34)ccc21 (stereo partly drawn)	0.471 µM	58.8 µM
O=C(O)C1C2C=CC(O2)C1C(=O)NCc1ccccn1 (stereo not drawn)	–	> 100 µM
O=C(OC(CNc1cc(=O)n(Cc2ccccc2)c(=O)n1Cc1ccccc1)CN1CCCC1)c1ccccc1 (stereo not drawn)	18.9 µM	> 100 µM
CCN(CC)CCCC(CNc1ccnc2cc(Cl)ccc12)c1ccc(Cl)cc1 (stereo not drawn)	1.64 µM and 2.06 µM	3.42 µM and 4.02 µM
CCOC(=O)CCCn1c(SC)nc2[nH]cc(-c3ccccc3)c2c1=O	18.2 µM	61.4 µM
[Cl][Hg][c]1cc(Br)cc(Br)c1	2 µM	7.88 µM
CNC(=O)N(C)N=NCCCl	–	> 100 µM
CCN1CCN(C(c2ccc(C(F)(F)F)cc2)c2ccc3cccnc3c2O)CC1 (stereo not drawn)	4.19 µM	15.2 µM
COc1ccc(C(C)=O)cc1N1C(=O)C2C(C1=O)C1(c3ccccc3)C(=O)C2(c2ccccc2)C(c2ccc(C)cc2)=C1c1ccc(C)cc1 (stereo not drawn)	> 100 µM	> 100 µM
O=C1c2cccc(NCCCNCCO)c2C(=O)c2cccc(NCCCNCCO)c21	–	8.89 µM
CCN(CC)c1ccc2c(c1)OC(N)=C(C#N)C2c1cc(OC)c2c(c1)OCO2 (stereo not drawn)	3.32 µM	22 µM
N#CC(=C1C=CC(=NO)C=C1)c1ccccc1	0.47 µM	2.99 µM
CCCCCCCCCCCCCC1=NC(C)(C)CN1C(C)C	1.84 µM	3.8 µM
COc1ccc(CN2C(=O)/C(=C\C(=O)c3ccc(OCCN4CCCCC4)cc3)c3ccccc32)cc1	1.64 µM	3.29 µM
CCC(C)n1ncn(-c2ccc(N3CCN(c4ccc(OCC5COC(Cn6cncn6)(c6ccc(Cl)cc6Cl)O5)cc4)CC3)cc2)c1=O (stereo not drawn)	1.27 µM	74.3 µM
CC(C)CCN1c2nc(Nc3cc(F)c(O)c(F)c3)ncc2N(C)C(=O)C1C (stereo not drawn)	6.36 µM	25.9 µM
O=C(CNc1ccc(Cl)cc1)Nc1ccc(-c2nc3ccccc3s2)cc1	5.2 µM	16.6 µM
Cc1nc2c(-c3cnc(N)nc3)nc(N3CCOCC3)nc2n1C(C)C	–	0.251 µM and 0.102 µM
CCCCCCCCCCCCOC1C(C(COC2OC(C3COC(C)(C)O3)C3OC(C)(C)OC23)NC(=O)Nc2ccc(C(=O)O)cc2)OC2OC(C)(C)OC21 (stereo not drawn)	3.39 µM	13.5 µM
CCN(CC)CCC(CNc1ccnc2cc(Cl)ccc12)c1ccc(OC)cc1 (stereo not drawn)	2.59 µM and 2.73 µM	6.66 µM and 7.85 µM
COc1ccc(/C=C(/C(=O)N2CCN(c3ccccc3)CC2)c2cc(OC)c(OC)c(OC)c2)cc1O	51.3 µM	> 100 µM
CCn1c(-c2nonc2N)nc2c(C#CC(C)(C)O)nc(OC[C@H](N)c3ccccc3)cc21	2.88 µM	7.53 µM

test system: NCI-H522 lung; assay: inhibition of tumour cell growth, NCI panel, 48 h

SMILES	GI50	TGI
C=CCCCCC/C=C\[C@H](O)C#CC#C/C=C/CO	19.3 µM	45.4 µM
O/N=C/C1C(OCc2ccccc2)C(OCc2ccccc2)C(OCc2ccccc2)CN1Cc1ccccc1 (stereo not drawn)	–	> 100 µM
O=C1NC(=O)C(c2cnc3ccccn23)=C1c1cn2c3c(cc(F)cc13)CN(C(=O)N1CCCCC1)CC2	13.9 µM	40.1 µM
Clc1nc2ccccc2nc1CI	1.77 µM	3.58 µM
Cn1nc(N)c2cc([C@@H]3Nc4ccc5[nH]ncc5c4[C@H]4C5CCC(C5)[C@@H]34)ccc21 (stereo partly drawn)	0.474 µM	24 µM
O=C(O)C1C2C=CC(O2)C1C(=O)NCc1ccccn1 (stereo not drawn)	–	> 100 µM
O=C(OC(CNc1cc(=O)n(Cc2ccccc2)c(=O)n1Cc1ccccc1)CN1CCCC1)c1ccccc1 (stereo not drawn)	> 100 µM	> 100 µM
CCN(CC)CCCC(CNc1ccnc2cc(Cl)ccc12)c1ccc(Cl)cc1 (stereo not drawn)	1.69 µM and 0.859 µM	3.51 µM and 2.55 µM
CCOC(=O)CCCn1c(SC)nc2[nH]cc(-c3ccccc3)c2c1=O	15 µM	37.8 µM
[Cl][Hg][c]1cc(Br)cc(Br)c1	0.493 µM	2.27 µM
CNC(=O)N(C)N=NCCCl	–	> 100 µM
CCN1CCN(C(c2ccc(C(F)(F)F)cc2)c2ccc3cccnc3c2O)CC1 (stereo not drawn)	5.01 µM	18 µM
COc1ccc(C(C)=O)cc1N1C(=O)C2C(C1=O)C1(c3ccccc3)C(=O)C2(c2ccccc2)C(c2ccc(C)cc2)=C1c1ccc(C)cc1 (stereo not drawn)	> 100 µM	> 100 µM
O=C1c2cccc(NCCCNCCO)c2C(=O)c2cccc(NCCCNCCO)c21	–	1.6 µM
CCN(CC)c1ccc2c(c1)OC(N)=C(C#N)C2c1cc(OC)c2c(c1)OCO2 (stereo not drawn)	–	0.0474 µM
N#CC(=C1C=CC(=NO)C=C1)c1ccccc1	1.02 µM	4.68 µM
CCCCCCCCCCCCCC1=NC(C)(C)CN1C(C)C	1.58 µM	2.97 µM
COc1ccc(CN2C(=O)/C(=C\C(=O)c3ccc(OCCN4CCCCC4)cc3)c3ccccc32)cc1	1.97 µM	3.78 µM
CCC(C)n1ncn(-c2ccc(N3CCN(c4ccc(OCC5COC(Cn6cncn6)(c6ccc(Cl)cc6Cl)O5)cc4)CC3)cc2)c1=O (stereo not drawn)	15.4 µM	60.8 µM
CC(C)CCN1c2nc(Nc3cc(F)c(O)c(F)c3)ncc2N(C)C(=O)C1C (stereo not drawn)	2.52 µM	22.4 µM
O=C(CNc1ccc(Cl)cc1)Nc1ccc(-c2nc3ccccc3s2)cc1	1.53 µM	3.67 µM
Cc1nc2c(-c3cnc(N)nc3)nc(N3CCOCC3)nc2n1C(C)C	0.137 µM and 0.138 µM	–
CCCCCCCCCCCCOC1C(C(COC2OC(C3COC(C)(C)O3)C3OC(C)(C)OC23)NC(=O)Nc2ccc(C(=O)O)cc2)OC2OC(C)(C)OC21 (stereo not drawn)	2.56 µM	6.93 µM
CCN(CC)CCC(CNc1ccnc2cc(Cl)ccc12)c1ccc(OC)cc1 (stereo not drawn)	3.29 µM and 2.16 µM	13.1 µM and 8.47 µM
COc1ccc(/C=C(/C(=O)N2CCN(c3ccccc3)CC2)c2cc(OC)c(OC)c(OC)c2)cc1O	0.128 µM	0.594 µM
CCn1c(-c2nonc2N)nc2c(C#CC(C)(C)O)nc(OC[C@H](N)c3ccccc3)cc21	4.47 µM	8.63 µM

test system: IGROV1 ovarian; assay: inhibition of tumour cell growth, NCI panel, 48 h

SMILES	GI50 [µM]	TGI [µM]
C=CCCCCC/C=C\[C@H](O)C#CC#C/C=C/CO	19.4	53.7
